Experimental data published in publication PMC10004634 (PLOS ONE, 2023).

Key:
[1] = system: TMD8 subcutaneous xenograft; assay: TMD8 subcutaneous xenograft model, tumor volume; assay type: in vivo, mouse; settings: SCID mice; 1, 3, 10 mg/kg BID orally, 21 days
Description: The present study was conducted in compliance with the Guidance for Animal Experiments, the Ethical Standards for Experiments using Human Tissues, and the Standards for Safety Management of Pathogens established by Ono Pharmaceutical Co., Ltd. Female C.B-17/Icr-scid/scidJcl mice (hereafter referred to as severe combined immunodeficient [SCID] mice) were obtained from CLEA Japan, Inc. (Tokyo, Japan). The age at the beginning of the experiment was 6 weeks. To establish the TMD8 xenograft model, TMD8 cell suspension (0.1 mL, 1 × 10^8 cells/mL) was subcutaneously injected into the right flank of SCID mice under pentobarbital anesthesia. […] Tumor diameters and body weight were measured every 3 or 4 days after group assignment. The tumor growth inhibition rate (%) in the tirabrutinib-treated groups, versus the vehicle group, was calculated based on tumor volume. Statistical tests were performed with the SAS 9.2 (SAS Institute Japan Ltd., Tokyo, Japan) TS2M3-based EXSUS system version 7.7.1 (CAC Corporation, Tokyo, Japan). The Dunnett test was used to compare tumor volume in the tirabrutinib- and vehicle-treated groups, and linear regression analysis was used to study dose response in the tirabrutinib groups. The statistical tests were two-sided with a 5% significance level.

[2] = system: U-2932 cells; assay: SILAC phosphoproteomic analysis
Description: For differential SILAC encoding, both cells were grown in arginine- and lysine-deficient culture medium containing light (Arg0/Lys0) or heavy (Arg10/Lys8) isotopic forms of L-arginine and L-lysine (SILAC medium). […] For mass spectrometric analysis, phosphopeptide-enriched samples were loaded onto a reversed phase analytical column, resolved by an acetonitrile gradient using a nanoflow HPLC system and directly electrosprayed via a nanoelectrospray ion source into an LTQ-Orbitrap Velos mass spectrometer (Thermo Fisher Scientific). […] A false discovery rate (FDR) of 0.01 was selected for protein and peptide identification, and a posterior error probability of ≤0.1 for each peptide-to-spectral match was required. The resulting list of phosphosites exported from the MaxQuant software was filtered for class-I sites (only serine, threonine, or tyrosine assignments with a localization probability of ≥0.75) [33] and used for all subsequent biostatistical analysis. […] Gaussian regression analysis on the histogram plot of these log2-transformed ratios was performed using Sigmaplot (version 10.0; Systat Software Inc.). The obtained values for the mean and standard deviation across the whole quantitative dataset were used to determine thresholds for significant regulation of at least ±2.5 σ. […] Furthermore, only phosphosites conforming to this criterion and showing consistent regulation in both biological replicates were considered as regulated.

Compound: CC#CC(=O)N1CC[C@@H](n2c(=O)n(-c3ccc(Oc4ccccc4)cc3)c3c(N)ncnc32)C1 [Tirabrutinib]
- anti-tumor effect (tumor volume) [1]: dose-dependent anti-tumor effect
- number of downregulated (suppressed) phosphorylation sites ([2]; 1 μM, 1 h, ratio <0.664): 30
- number of upregulated (induced) phosphorylation sites ([2]; 1 μM, 1 h, ratio >1.506): four
- Tirabrutinib/ctrl. rep. 1 ([2]; AKT1S1 S88): 1.16
- Tirabrutinib/ctrl. rep. 2 ([2]; AKT1S1 S88): 1.03
- Tirabrutinib/ctrl. rep. 1 ([2]; AKT1S1 S183): 0.86
- Tirabrutinib/ctrl. rep. 2 ([2]; AKT1S1 S183): 0.93
- Tirabrutinib/ctrl. rep. 2 ([2]; AKT1S1 T97): 0.84
- Tirabrutinib/ctrl. rep. 1 ([2]; AKT1S1 T246): 0.84
- Tirabrutinib/ctrl. rep. 2 ([2]; AKT1S1 T246): 0.87
- Tirabrutinib/ctrl. rep. 2 ([2]; AKT1 S124): 0.96
- Tirabrutinib/ctrl. rep. 1 ([2]; AKT2 S126): 1.09
- Tirabrutinib/ctrl. rep. 2 ([2]; AKT2 S126): 0.97
- Tirabrutinib/ctrl. rep. 1 ([2]; ATF2 S90): 0.87
- Tirabrutinib/ctrl. rep. 2 ([2]; ATF2 S90): 0.93
- Tirabrutinib/ctrl. rep. 1 ([2]; ATF2 S112): 1.02
- Tirabrutinib/ctrl. rep. 2 ([2]; ATF2 S112): 1.00
- Tirabrutinib/ctrl. rep. 1 ([2]; ATF2 T71): 0.99
- Tirabrutinib/ctrl. rep. 2 ([2]; ATF2 T71): 0.86
- Tirabrutinib/ctrl. rep. 1 ([2]; ATF2 T73): 0.69
- Tirabrutinib/ctrl. rep. 2 ([2]; CARD11 S483): 1.78
- Tirabrutinib/ctrl. rep. 1 ([2]; CARD11 S610): 0.99
- Tirabrutinib/ctrl. rep. 2 ([2]; CARD11 S610): 0.96
- Tirabrutinib/ctrl. rep. 1 ([2]; CARD11 S903): 1.10
- Tirabrutinib/ctrl. rep. 2 ([2]; CARD11 S903): 1.31
- Tirabrutinib/ctrl. rep. 1 ([2]; CARD11 S910): 1.78
- Tirabrutinib/ctrl. rep. 2 ([2]; CARD11 S910): 0.95
- Tirabrutinib/ctrl. rep. 1 ([2]; CARD11 S942): 0.96
- Tirabrutinib/ctrl. rep. 2 ([2]; CARD11 S942): 0.97
- Tirabrutinib/ctrl. rep. 1 ([2]; ERF S21): 0.26
- Tirabrutinib/ctrl. rep. 1 ([2]; HSP27 S78): 1.14
- Tirabrutinib/ctrl. rep. 2 ([2]; HSP27 S78): 0.79
- Tirabrutinib/ctrl. rep. 1 ([2]; HSP27 S82): 1.09
- Tirabrutinib/ctrl. rep. 2 ([2]; HSP27 S82): 0.76
- Tirabrutinib/ctrl. rep. 1 ([2]; HSP27 S86): 0.81
- Tirabrutinib/ctrl. rep. 2 ([2]; HSP27 S86): 1.16
- Tirabrutinib/ctrl. rep. 1 ([2]; IKBKB S550): 0.86
- Tirabrutinib/ctrl. rep. 2 ([2]; IKBKB S550): 0.97
- Tirabrutinib/ctrl. rep. 1 ([2]; IKBKB S672): 1.04
- Tirabrutinib/ctrl. rep. 2 ([2]; IKBKB S672): 1.20
- Tirabrutinib/ctrl. rep. 1 ([2]; IKBKG S455): 1.15
- Tirabrutinib/ctrl. rep. 2 ([2]; IKBKG S455): 0.87
- Regulation of Phosphorylation Site ([2]; MAPK1 T185): ↓
- Tirabrutinib/ctrl. rep. 1 ([2]; MAPK1 T185): 0.23
- Tirabrutinib/ctrl. rep. 2 ([2]; MAPK1 T185): 0.41
- Regulation of Phosphorylation Site ([2]; MAPK1 Y187): ↓
- Tirabrutinib/ctrl. rep. 1 ([2]; MAPK1 Y187): 0.23
- Tirabrutinib/ctrl. rep. 2 ([2]; MAPK1 Y187): 0.41
- Tirabrutinib/ctrl. rep. 1 ([2]; NHE1 S602): 0.96
- Tirabrutinib/ctrl. rep. 2 ([2]; NHE1 S602): 0.92
- Tirabrutinib/ctrl. rep. 1 ([2]; NHE1 S605): 0.95
- Tirabrutinib/ctrl. rep. 2 ([2]; NHE1 S605): 0.92
- Tirabrutinib/ctrl. rep. 1 ([2]; NHE1 S785): 1.08
- Tirabrutinib/ctrl. rep. 2 ([2]; NHE1 S785): 1.26
- Tirabrutinib/ctrl. rep. 1 ([2]; NHE1 S796): 0.80
- Tirabrutinib/ctrl. rep. 2 ([2]; NHE1 S796): 0.78
- Tirabrutinib/ctrl. rep. 1 ([2]; PEA15 S82): 0.89
- Tirabrutinib/ctrl. rep. 2 ([2]; PEA15 S82): 0.86
- Tirabrutinib/ctrl. rep. 1 ([2]; PEA15 S137): 1.18
- Tirabrutinib/ctrl. rep. 2 ([2]; PEA15 S137): 1.03
- Tirabrutinib/ctrl. rep. 1 ([2]; PIK3AP1 S642): 1.22
- Tirabrutinib/ctrl. rep. 2 ([2]; PIK3AP1 S642): 0.88
- Tirabrutinib/ctrl. rep. 1 ([2]; PIK3AP1 T151): 1.02
- Tirabrutinib/ctrl. rep. 2 ([2]; PIK3AP1 T151): 1.07
- Tirabrutinib/ctrl. rep. 1 ([2]; PLCG2 S341): 0.84
- Tirabrutinib/ctrl. rep. 2 ([2]; PLCG2 S341): 1.25
- Tirabrutinib/ctrl. rep. 1 ([2]; PLCG2 S871): 0.99
- Tirabrutinib/ctrl. rep. 2 ([2]; PLCG2 S871): 0.98
- Tirabrutinib/ctrl. rep. 1 ([2]; PLCG2 S1236): 1.17
- Tirabrutinib/ctrl. rep. 2 ([2]; PLCG2 S1236): 0.99
- Tirabrutinib/ctrl. rep. 1 ([2]; PRKCB T497): 0.99
- Tirabrutinib/ctrl. rep. 2 ([2]; PRKCB T497): 1.00
- Tirabrutinib/ctrl. rep. 1 ([2]; PRKCB T500): 0.99
- Tirabrutinib/ctrl. rep. 2 ([2]; PRKCB T500): 1.00
